The test addresses T1, mouse TLR13 (Mus musculus, UniProt Q6R5N8).
T1 construct: host or cells: HEK293
T1 sequence (Q6R5N8 69-991): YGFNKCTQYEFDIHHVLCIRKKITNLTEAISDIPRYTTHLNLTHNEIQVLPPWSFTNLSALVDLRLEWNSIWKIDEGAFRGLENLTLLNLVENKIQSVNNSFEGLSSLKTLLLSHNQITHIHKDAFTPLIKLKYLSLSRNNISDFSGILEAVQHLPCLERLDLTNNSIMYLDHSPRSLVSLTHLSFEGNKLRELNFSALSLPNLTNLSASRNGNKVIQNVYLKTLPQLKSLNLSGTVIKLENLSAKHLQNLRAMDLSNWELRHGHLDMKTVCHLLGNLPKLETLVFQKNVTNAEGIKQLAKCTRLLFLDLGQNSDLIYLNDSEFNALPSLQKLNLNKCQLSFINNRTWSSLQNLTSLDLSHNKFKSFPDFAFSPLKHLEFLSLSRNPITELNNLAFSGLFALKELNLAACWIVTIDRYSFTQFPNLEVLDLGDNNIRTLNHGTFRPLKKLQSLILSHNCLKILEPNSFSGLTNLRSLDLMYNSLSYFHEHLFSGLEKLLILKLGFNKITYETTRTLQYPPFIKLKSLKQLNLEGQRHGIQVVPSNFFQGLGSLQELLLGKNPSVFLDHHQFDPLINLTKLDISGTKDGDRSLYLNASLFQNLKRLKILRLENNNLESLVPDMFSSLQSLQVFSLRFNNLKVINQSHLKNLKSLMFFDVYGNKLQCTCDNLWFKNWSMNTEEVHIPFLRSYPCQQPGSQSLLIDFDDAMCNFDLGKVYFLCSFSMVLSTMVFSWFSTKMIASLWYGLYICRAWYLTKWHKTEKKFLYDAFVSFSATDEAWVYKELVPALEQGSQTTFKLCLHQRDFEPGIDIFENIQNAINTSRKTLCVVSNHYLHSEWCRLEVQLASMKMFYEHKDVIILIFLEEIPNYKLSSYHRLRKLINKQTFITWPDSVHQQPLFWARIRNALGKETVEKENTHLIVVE
The test is described as follows: HEK293 SEAP reporter assay, other TLRs (Biological Example 3). Particulars: 16 hrs, up to 1 μM. The class given is cell-based. On the technique in general: A reporter such as luciferase makes a cellular process visible.

Bounds are passed on as bounds.

As a reminder, the EC50 is the concentration that produces a half-maximal response. High values mean a less potent agent, low ones a more potent agent.

The molecule `CCCCn1nc2c(N)nc3ccccc3c2c1Cc1ccc(CN)cc1` [Compound 1, 1-(4-(aminomethyl)benzyl)-2-butyl-2H-pyrazolo[3,4-c]quinolin-4-amine] displayed a half-maximal effective concentration (EC50) of over 1 µM.

`CCCCc1nc2c(N)nc3ccccc3c2n1Cc1ccc(CN)cc1` [Compound A, reference compound] came in with a half-maximal effective concentration (EC50) of over 1 µM.

Values taken from patent US20220259202A1, “1-(4-(AMINOMETHYL)BENZYL)-2-BUTYL-2H-PYRAZOLO[3,4-C]QUINOLIN-4-AMINE DERIVATIVES AND RELATED COMPOUNDS AS TOLL-LIKE RECEPTOR (TLR) 7/8 AGONISTS, AS WELL AS ANTIBODY DRUG CONJUGATES THEREOF FOR USE IN CANCER THERAPY AND DIAGNOSIS” (SUTRO BIOPHARMA, INC., priority 2019, published 2022).
